Active and inactive are the calls of the source. The rule behind the calls is not given here.
Experiments:
HeLa [1] = assay: Cytotoxicity against human HeLa cells assessed as reduction in cell viability incubated for 48 hrs by MTT assay; format: functional, cell-based
MGC-803 = assay: Cytotoxicity against human MGC803 cells assessed as reduction in cell viability incubated for 48 hrs by MTT assay; format: functional, cell-based; details: MGC-803, 48 h
MCF7 = assay: Cytotoxicity against human MCF7 cells assessed as reduction in cell viability incubated for 48 hrs by MTT assay; format: functional, cell-based; details: MCF7, 48 h
A549 = assay: Cytotoxicity against human A549 cells assessed as reduction in cell viability incubated for 48 hrs by MTT assay; format: functional, cell-based; details: A549, 48 h
[2] = Drug accumulation in lysosome of human HeLa cells at 5 uM incubated for 1 hr by lysososmal tracker DND-99 based confocal microscopy; format: ADME, subcellular
HeLa [3] = assay: Cell cycle arrest in human HeLa cells assessed as accumulation at S phase at 2.5 uM incubated for 12 hrs by propidium iodide staining based flow cytometry (reference value: 27.8%); format: functional
Calf thymus DNA [4] = assay: Binding affinity to calf thymus DNA assessed as induction of bathochromic shift of maximum absorption peaks at 1 x 10^-5 M by UV-Visible spectroscopy (reference value: 426 nanometer); format: nucleic-acid assay; details: Bos taurus
HeLa [5] = assay: Cell cycle arrest in human HeLa cells assessed as accumulation at G1 phase at 5 uM incubated for 12 hrs by propidium iodide staining based flow cytometry (reference value: 65.2%); format: functional
HeLa [6] = assay: Cell cycle arrest in human HeLa cells assessed as accumulation at G2 phase at 5 uM incubated for 12 hrs by propidium iodide staining based flow cytometry (reference value: 7%); format: functional
Calf thymus DNA [7] = assay: Binding affinity to calf thymus DNA assessed as reduction in compound self absorption intensity at 1 x 10^-5 M by UV-Visible spectroscopy; format: nucleic-acid assay; details: Bos taurus
HeLa [8] = assay: Cell cycle arrest in human HeLa cells assessed as accumulation at G1 phase at 2.5 uM incubated for 12 hrs by propidium iodide staining based flow cytometry (reference value: 65.2%); format: functional
Calf thymus DNA [9] = assay: Binding affinity to calf thymus DNA assessed as increase in […] shift at 1 x 10^-5 M by fluorescence spectroscopy (reference value: 542 nanometer); format: nucleic-acid assay; details: Bos taurus
Calf thymus DNA [10] = assay: Binding affinity to calf thymus DNA assessed as increase in intensity of positive band at 275 nm at 8 uM to 40 uM by CD spectroscopy; format: nucleic-acid assay; details: Bos taurus
HeLa [11] = assay: Cell cycle arrest in human HeLa cells assessed as accumulation at G2 phase at 2.5 uM incubated for 12 hrs by propidium iodide staining based flow cytometry (reference value: 7%); format: functional
HeLa [12] = assay: Cell cycle arrest in human HeLa cells assessed as accumulation at G1 phase at 7.5 uM incubated for 12 hrs by propidium iodide staining based flow cytometry (reference value: 65.2%); format: functional
HeLa [13] = assay: Cell cycle arrest in human HeLa cells assessed as accumulation at G2 phase at 7.5 uM incubated for 12 hrs by propidium iodide staining based flow cytometry (reference value: 7%); format: functional
HeLa [14] = assay: Cell cycle arrest in human HeLa cells assessed as accumulation at S phase at 5 uM incubated for 12 hrs by propidium iodide staining based flow cytometry (reference value: 27.8%); format: functional
Calf thymus DNA [15] = assay: Binding affinity to calf thymus DNA assessed as change in melting temperature at 5 uM; format: nucleic-acid assay; details: Bos taurus
HeLa [16] = assay: Cell cycle arrest in human HeLa cells assessed as accumulation at S phase at 7.5 uM incubated for 12 hrs by propidium iodide staining based flow cytometry (reference value: 27.8%); format: functional
Calf thymus DNA [17] = assay: Binding affinity to calf thymus DNA at 1 x 10^-5 M by UV-Visible spectroscopy; format: nucleic-acid assay; details: Bos taurus
Calf thymus DNA [18] = assay: Binding affinity to calf thymus DNA assessed as induction of ICD signal changes at 8 uM to 40 uM by CD spectroscopy; format: nucleic-acid assay; details: Bos taurus
Calf thymus DNA [19] = assay: Binding affinity to calf thymus DNA assessed as increase in compound fluorescence intensity at 1 x 10^-5 M up to 1.4 x 10^-4M DNA by fluorescence spectroscopy; format: nucleic-acid assay; details: Bos taurus
Calf thymus DNA [20] = assay: Binding affinity to calf thymus DNA assessed as induction of maximum emission band shift at 1 x 10^-5 M by fluorescence spectroscopy; format: nucleic-acid assay; details: Bos taurus
Calf thymus DNA [21] = assay: Binding affinity to calf thymus DNA assessed as increase in compound fluorescence intensity at 1 x 10^-5 M by fluorescence spectroscopy; format: nucleic-acid assay; details: Bos taurus

Structure (SMILES)	IC50 (HeLa [1])	IC50 (MGC-803)	IC50 (MCF7)	IC50 (A549)	further results
O=C1c2cccc3c(N4CC[C@@H](O)C4)ccc(c23)C(=O)N1CCCNCCNCCCN1C(=O)c2cccc3c(N4CC[C@@H](O)C4)ccc(c23)C1=O	45.4 µM	9.41 µM	74.6 µM	23 µM	–
Cl.Cl.Cl.Cl.O=C1c2cccc3c(N4CCN(CCO)CC4)ccc(c23)C(=O)N1CCCNCCNCCCN1C(=O)c2cccc3c(N4CCN(CCO)CC4)ccc(c23)C1=O	2.73 µM	1.6 µM	20 µM	2.59 µM	Drug uptake [2]: Active; Activity (HeLa [3]): 40.2%; Activity (Calf thymus DNA [4]): inactive; Activity (HeLa [5]): 46%; Activity (HeLa [6]): 4.3%; Activity (Calf thymus DNA [7]): Active; Activity (HeLa [8]): 48.9%; Activity (Calf thymus DNA [9]): 528 nm; Activity (Calf thymus DNA [10]): Active; Activity (HeLa [11]): 10.9%; Activity (HeLa [12]): 42.6%; Activity (HeLa [13]): 3.7%; Activity (HeLa [14]): 49.7%; ΔTm (Calf thymus DNA [15]): 14.3 °C; Activity (HeLa [16]): 53.87%; K (Calf thymus DNA [17]): 2.6 ×10⁵ /M; Activity (Calf thymus DNA [18]): Active; Activity (Calf thymus DNA [19]): Active
O=C1c2cccc3c(N4CCC(CCO)CC4)ccc(c23)C(=O)N1CCCNCCNCCCN1C(=O)c2cccc3c(N4CCC(CCO)CC4)ccc(c23)C1=O	6.88 µM	90.4 µM	11.1 µM	43.5 µM	–
O=C1c2cccc3c(N4CCC[C@H]4CO)ccc(c23)C(=O)N1CCCNCCNCCCN1C(=O)c2cccc3c(N4CCC[C@H]4CO)ccc(c23)C1=O	85.2 µM	35.1 µM	147 µM	472 µM	–
O=C1c2cccc3c(N4CCC[C@@H]4CO)ccc(c23)C(=O)N1CCCNCCNCCCN1C(=O)c2cccc3c(N4CCC[C@@H]4CO)ccc(c23)C1=O	89.2 µM	6.41 µM	93.5 µM	72.6 µM	–
Cl.Cl.Cl.Cl.O=C1c2cccc3c(N4CCC(O)CC4)ccc(c23)C(=O)N1CCCNCCNCCCN1C(=O)c2cccc3c(N4CCC(O)CC4)ccc(c23)C1=O	2.89 µM	0.6 µM	37.1 µM	46.2 µM	Drug uptake [2]: Active; Activity (HeLa [3]): 40.8%; Activity (Calf thymus DNA [4]): 445 nm; Activity (HeLa [5]): 44.9%; Activity (HeLa [6]): 9.9%; Activity (Calf thymus DNA [7]): Active; Activity (HeLa [8]): 47.5%; Activity (Calf thymus DNA [10]): Active; Activity (HeLa [11]): 11.7%; Activity (HeLa [12]): 44.3%; Activity (HeLa [13]): 5.3%; Activity (Calf thymus DNA [20]): inactive; Activity (HeLa [14]): 45.2%; ΔTm (Calf thymus DNA [15]): 8.2 °C; Activity (HeLa [16]): 50.4%; K (Calf thymus DNA [17]): 1.8 ×10⁵ /M; Activity (Calf thymus DNA [18]): Active; Activity (Calf thymus DNA [21]): Active
O=C1c2cccc3c(N4CCC(CO)CC4)ccc(c23)C(=O)N1CCCNCCNCCCN1C(=O)c2cccc3c(N4CCC(CO)CC4)ccc(c23)C1=O	4.03 µM	2.03 µM	22.7 µM	14 µM	–
O=C1c2cccc3c(N4CC[C@H](O)C4)ccc(c23)C(=O)N1CCCNCCNCCCN1C(=O)c2cccc3c(N4CC[C@H](O)C4)ccc(c23)C1=O	35.4 µM	5.96 µM	142 µM	83.6 µM	–
CN(C)CCN1C(=O)c2cccc3cc(N)cc(c23)C1=O [AMONAFIDE]	3.41 µM	3.23 µM	6.79 µM	2 µM	–
